From publication PMC3961306, “Comparison of the Cancer Gene Targeting and Biochemical Selectivities of All Targeted Kinase Inhibitors Approved for Clinical Use” (PLoS ONE, 2014)

What was measured:
Assay in all cases: Kinase profiling in a biochemical assay panel (mobility shift assays and ELISA), %-inhibition at 1 μM; selectivity entropy
[1] = target: panel of more than 300 wild-type and mutant kinases (313 kinase panel) (Homo sapiens, UniProt P04049)
[2] = target: panel of more than 300 wild-type and mutant kinases (313 kinase panel) (Homo sapiens, UniProt O14578); settings: kinase CRIK; compound at 1 μM
[3] = target: panel of more than 300 wild-type and mutant kinases (313 kinase panel) (Homo sapiens, UniProt P51957); settings: kinase NEK4; 1 μM
[4] = target: panel of more than 300 wild-type and mutant kinases (313 kinase panel) (Homo sapiens, UniProt P08581, Y1235D)
[5] = target: T1, panel of more than 300 wild-type and mutant kinases (313 kinase panel) (Homo sapiens, UniProt Q9UL54); settings: kinase TAOK2; 1 μM
T1 sequence (Q9UL54 1-1235): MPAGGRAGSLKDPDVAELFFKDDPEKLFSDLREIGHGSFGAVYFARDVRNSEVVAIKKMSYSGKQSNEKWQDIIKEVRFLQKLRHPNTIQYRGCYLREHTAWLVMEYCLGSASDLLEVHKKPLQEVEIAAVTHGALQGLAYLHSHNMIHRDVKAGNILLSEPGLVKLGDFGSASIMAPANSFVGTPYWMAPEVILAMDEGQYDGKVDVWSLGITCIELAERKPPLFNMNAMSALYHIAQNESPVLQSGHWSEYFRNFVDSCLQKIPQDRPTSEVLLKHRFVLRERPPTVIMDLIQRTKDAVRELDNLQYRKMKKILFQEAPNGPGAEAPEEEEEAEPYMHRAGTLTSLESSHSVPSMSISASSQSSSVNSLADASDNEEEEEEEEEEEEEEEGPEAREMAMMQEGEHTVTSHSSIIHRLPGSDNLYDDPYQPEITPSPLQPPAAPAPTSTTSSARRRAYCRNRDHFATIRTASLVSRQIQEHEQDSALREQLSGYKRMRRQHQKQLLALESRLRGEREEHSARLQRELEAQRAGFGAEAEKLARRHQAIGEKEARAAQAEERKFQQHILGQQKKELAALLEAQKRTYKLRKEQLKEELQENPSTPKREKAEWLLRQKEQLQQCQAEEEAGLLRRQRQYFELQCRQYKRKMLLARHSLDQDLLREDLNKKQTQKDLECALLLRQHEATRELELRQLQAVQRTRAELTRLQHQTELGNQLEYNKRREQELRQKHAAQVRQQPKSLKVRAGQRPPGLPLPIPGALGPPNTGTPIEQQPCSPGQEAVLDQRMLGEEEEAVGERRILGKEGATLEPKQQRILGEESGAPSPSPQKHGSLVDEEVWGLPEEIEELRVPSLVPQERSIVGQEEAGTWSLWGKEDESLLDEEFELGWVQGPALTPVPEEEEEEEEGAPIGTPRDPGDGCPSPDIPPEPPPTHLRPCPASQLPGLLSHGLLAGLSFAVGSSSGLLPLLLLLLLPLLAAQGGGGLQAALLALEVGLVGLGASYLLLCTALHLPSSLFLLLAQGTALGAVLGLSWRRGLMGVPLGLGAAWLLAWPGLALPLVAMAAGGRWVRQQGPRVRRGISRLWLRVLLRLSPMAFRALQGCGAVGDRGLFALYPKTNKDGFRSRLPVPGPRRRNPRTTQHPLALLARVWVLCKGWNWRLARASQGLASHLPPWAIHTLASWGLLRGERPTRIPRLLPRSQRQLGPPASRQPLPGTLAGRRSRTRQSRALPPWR

[6] = target: T2, panel of more than 300 wild-type and mutant kinases (313 kinase panel) (Homo sapiens, UniProt O14965); settings: 1 μM compound; for %-inhibition, AurA/TPX2: kinase AurA/TPX2; for %-inhibition, AurA: kinase AurA
T2 sequence (O14965 1-403): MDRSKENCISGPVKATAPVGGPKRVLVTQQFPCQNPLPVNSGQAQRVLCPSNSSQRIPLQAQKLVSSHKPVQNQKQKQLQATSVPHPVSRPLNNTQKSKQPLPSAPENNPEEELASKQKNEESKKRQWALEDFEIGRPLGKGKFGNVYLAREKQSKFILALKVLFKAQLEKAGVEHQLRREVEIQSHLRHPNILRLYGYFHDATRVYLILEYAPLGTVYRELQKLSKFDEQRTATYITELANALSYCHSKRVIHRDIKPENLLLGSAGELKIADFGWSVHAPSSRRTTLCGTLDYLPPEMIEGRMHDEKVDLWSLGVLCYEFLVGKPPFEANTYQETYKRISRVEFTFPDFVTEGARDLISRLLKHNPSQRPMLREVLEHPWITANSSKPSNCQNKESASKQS

[7] = target: panel of more than 300 wild-type and mutant kinases (313 kinase panel) (Homo sapiens, UniProt O75676)
[8] = target: panel of more than 300 wild-type and mutant kinases (313 kinase panel) (Homo sapiens, UniProt P06241); settings: kinase FYN; compound at 1 μM
[9] = target: panel of more than 300 wild-type and mutant kinases (313 kinase panel) (Homo sapiens, UniProt P12931); settings: kinase SRC; 1 μM
[10] = target: panel of more than 300 wild-type and mutant kinases (313 kinase panel) (Homo sapiens, UniProt P48729); settings: kinase CK1α; 1 μM compound
[11] = kinase MET(Y1235D), compound at 1 μM

Chain of panel of more than 300 wild-type and mutant kinases (313 kinase panel) (Homo sapiens, UniProt P08581, Y1235D) (P08581 25-1390 Y1235D): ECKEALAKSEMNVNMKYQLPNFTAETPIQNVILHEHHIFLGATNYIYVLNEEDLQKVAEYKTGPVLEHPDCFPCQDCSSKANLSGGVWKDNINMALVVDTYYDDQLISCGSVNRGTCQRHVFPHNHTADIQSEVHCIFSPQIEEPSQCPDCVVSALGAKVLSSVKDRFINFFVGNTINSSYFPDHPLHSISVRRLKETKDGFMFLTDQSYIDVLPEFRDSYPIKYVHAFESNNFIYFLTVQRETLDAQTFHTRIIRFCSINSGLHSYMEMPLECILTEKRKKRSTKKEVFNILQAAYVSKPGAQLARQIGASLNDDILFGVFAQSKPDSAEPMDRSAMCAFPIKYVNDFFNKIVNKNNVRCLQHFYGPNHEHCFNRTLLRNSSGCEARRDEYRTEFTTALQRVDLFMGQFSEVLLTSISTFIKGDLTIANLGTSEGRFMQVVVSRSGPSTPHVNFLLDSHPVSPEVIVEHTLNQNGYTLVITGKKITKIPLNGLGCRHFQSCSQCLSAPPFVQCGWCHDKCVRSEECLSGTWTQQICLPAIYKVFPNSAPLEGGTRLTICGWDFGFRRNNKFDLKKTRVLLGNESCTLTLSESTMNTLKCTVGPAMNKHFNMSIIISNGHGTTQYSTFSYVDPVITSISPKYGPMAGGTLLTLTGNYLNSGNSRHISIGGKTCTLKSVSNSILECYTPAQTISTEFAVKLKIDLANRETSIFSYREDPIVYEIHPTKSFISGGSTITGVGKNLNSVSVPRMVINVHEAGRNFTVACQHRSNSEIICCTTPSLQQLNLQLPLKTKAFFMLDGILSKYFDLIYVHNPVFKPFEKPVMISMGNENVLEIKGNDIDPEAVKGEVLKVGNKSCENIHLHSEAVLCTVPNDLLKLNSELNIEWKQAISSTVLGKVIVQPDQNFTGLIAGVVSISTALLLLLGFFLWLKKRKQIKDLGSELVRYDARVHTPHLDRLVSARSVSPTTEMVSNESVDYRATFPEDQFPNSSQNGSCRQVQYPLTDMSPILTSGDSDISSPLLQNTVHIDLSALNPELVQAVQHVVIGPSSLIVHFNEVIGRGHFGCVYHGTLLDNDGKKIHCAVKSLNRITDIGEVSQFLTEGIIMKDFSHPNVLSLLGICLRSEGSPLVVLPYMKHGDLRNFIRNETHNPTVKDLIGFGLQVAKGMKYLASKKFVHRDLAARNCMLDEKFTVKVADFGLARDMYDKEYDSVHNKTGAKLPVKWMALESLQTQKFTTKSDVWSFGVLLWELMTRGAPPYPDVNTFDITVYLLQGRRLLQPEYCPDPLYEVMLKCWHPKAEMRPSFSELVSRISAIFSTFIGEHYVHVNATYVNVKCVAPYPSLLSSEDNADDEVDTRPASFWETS
Chain of panel of more than 300 wild-type and mutant kinases (313 kinase panel) (Homo sapiens, UniProt P04049) (P04049 whole entry, change not shown): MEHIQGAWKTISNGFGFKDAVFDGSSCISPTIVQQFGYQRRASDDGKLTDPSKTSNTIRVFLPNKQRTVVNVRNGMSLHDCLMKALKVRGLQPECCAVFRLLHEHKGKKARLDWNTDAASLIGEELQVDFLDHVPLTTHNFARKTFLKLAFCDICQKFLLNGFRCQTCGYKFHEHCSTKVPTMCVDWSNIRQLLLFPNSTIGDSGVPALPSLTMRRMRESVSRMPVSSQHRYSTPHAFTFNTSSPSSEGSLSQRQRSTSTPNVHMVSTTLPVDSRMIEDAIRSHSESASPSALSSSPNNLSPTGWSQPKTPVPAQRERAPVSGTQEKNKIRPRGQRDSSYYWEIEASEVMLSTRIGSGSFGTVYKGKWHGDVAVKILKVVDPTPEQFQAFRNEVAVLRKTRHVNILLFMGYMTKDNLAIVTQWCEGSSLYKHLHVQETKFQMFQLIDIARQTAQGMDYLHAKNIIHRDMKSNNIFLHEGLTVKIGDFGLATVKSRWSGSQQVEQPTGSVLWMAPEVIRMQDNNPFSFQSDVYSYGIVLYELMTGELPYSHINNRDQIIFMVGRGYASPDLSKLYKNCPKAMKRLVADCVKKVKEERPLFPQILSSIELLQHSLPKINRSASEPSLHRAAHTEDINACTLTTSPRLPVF
Chain of panel of more than 300 wild-type and mutant kinases (313 kinase panel) (Homo sapiens, UniProt P06241) (P06241 whole entry, change not shown): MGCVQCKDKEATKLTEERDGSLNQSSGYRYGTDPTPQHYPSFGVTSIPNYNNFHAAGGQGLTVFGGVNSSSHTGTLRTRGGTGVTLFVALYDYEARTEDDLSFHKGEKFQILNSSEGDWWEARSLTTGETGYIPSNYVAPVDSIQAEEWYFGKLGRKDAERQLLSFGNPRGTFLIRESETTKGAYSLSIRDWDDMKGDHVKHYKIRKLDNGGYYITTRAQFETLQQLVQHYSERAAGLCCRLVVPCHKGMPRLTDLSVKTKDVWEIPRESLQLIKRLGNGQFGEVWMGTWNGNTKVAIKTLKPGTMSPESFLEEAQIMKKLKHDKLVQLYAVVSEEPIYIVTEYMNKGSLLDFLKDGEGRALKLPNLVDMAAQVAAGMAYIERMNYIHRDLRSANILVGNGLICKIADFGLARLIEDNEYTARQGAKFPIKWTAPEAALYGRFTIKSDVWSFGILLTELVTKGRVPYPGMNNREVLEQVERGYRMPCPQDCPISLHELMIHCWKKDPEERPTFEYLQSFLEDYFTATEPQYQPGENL
Chain of panel of more than 300 wild-type and mutant kinases (313 kinase panel) (Homo sapiens, UniProt P51957) (P51957 whole entry, stated change not applied): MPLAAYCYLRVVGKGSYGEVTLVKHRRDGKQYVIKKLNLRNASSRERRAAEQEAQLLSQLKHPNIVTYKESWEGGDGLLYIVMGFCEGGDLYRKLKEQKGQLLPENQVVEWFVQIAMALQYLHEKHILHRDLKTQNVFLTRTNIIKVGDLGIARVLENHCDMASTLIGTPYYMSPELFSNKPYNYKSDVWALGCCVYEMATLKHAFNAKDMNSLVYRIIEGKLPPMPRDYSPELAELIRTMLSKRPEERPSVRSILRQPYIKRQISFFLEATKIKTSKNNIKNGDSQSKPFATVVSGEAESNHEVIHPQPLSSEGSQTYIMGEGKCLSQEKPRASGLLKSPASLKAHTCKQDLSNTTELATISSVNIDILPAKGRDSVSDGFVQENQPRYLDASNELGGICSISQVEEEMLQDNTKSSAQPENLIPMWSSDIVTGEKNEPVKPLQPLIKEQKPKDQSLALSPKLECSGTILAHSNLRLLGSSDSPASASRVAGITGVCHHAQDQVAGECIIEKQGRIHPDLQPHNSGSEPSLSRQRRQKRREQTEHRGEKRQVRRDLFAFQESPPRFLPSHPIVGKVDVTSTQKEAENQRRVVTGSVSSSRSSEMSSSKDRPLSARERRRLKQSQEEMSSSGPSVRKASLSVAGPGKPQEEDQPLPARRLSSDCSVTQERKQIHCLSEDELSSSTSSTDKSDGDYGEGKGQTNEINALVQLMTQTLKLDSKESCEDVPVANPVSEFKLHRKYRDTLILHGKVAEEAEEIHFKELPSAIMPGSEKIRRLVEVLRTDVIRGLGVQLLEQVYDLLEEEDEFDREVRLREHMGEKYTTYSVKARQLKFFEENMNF

SMILES | %-inhibition of RAF1 ([1]; kinase RAF1, 1 μM) [%] | %-inhibition of CRIK [2] [%] | %-inhibition of NEK4 [3] [%] | %-inhibition of MET(Y1235D) [4, 11] [%] | %-inhibition of TAOK2 [5] [%] | %-inhibition, AurA/TPX2 [6] [%] | %-inhibition, AurA [6] [%] | %-inhibition of MSK2 ([7]; kinase MSK2, 1 μM) [%] | %-inhibition of FYN [8] [%] | %-inhibition of SRC [9] [%] | %-inhibition, CK1α [10] [%] | %-inhibition of RAF1 ([1]; 1 µM) [%] | %-inhibition of MET(Y1235D) ([4]; 1 µM) [%] | %-inhibition of MSK2 ([7]; 1 µM) [%]
CS(=O)(=O)CCNCc1ccc(-c2ccc3ncnc(Nc4ccc(OCc5cccc(F)c5)c(Cl)c4)c3c2)o1 [lapatinib] | 8 | 7 | 0.649 | 2 | -5.44 | -10 | 5.59 | 2 | 1.29 | 6 | 3.6 |  |  | 
CNC(=O)c1cc(Oc2ccc(NC(=O)Nc3ccc(Cl)c(C(F)(F)F)c3)c(F)c2)ccn1 [regorafenib] | 96 | -18 | -4 | -1.72 | 75 | -4 | 7 | 2.43 | 55 | 44 | -7.56 |  |  | 
N#CC[C@H](C1CCCC1)n1cc(-c2ncnc3[nH]ccc23)cn1 [ruxolitinib] |  | 8 | -6 |  | 35 | 63 |  |  | 11 | 16 | 1.86 | 9 | -0.936 | 4.62
CO[C@H]1C[C@@H]2CC[C@@H](C)[C@@](O)(O2)C(=O)C(=O)N2CCCC[C@H]2C(=O)O[C@H]([C@H](C)C[C@@H]2CC[C@@H](OCCO)[C@H](OC)C2)CC(=O)[C@H](C)/C=C(\C)[C@@H](O)[C@@H](OC)C(=O)[C@H](C)C[C@H](C)/C=C/C=C/C=C/1C [everolimus] | 14 | -14 | 0.832 | -5 | -0.8 | -4.51 | 3.74 | -7 | -0.928 | 2.64 | -11 |  |  | 
CC(=O)Nc1cccc(-n2c(=O)n(C3CC3)c(=O)c3c(Nc4ccc(I)cc4F)n(C)c(=O)c(C)c32)c1 [trametinib] | 61 | -4.25 | 2 | -1.5 | -2.59 | -5.37 | -2 | -4.75 | 9 | -5.4 | 3 |  |  | 
